Laboratory results from patent US20130210786A1, “TREATMENT OF L-DOPA, DOPAMINE AGONIST AND/OR DOPAMINE ENHANCER INDUCED DISORDERS” (priority 2010, published 2013).

Legend:
[1] = tested on: MPTP-lesioned macaques; experiment: L-DOPA induced dyskinesia (LID) in MPTP-lesioned macaques, monkey dyskinesia rating scale; type: in vivo, Macaca fascicularis; settings: for % reduction in LID compared to corresponding vehicle group / Number of LID events in each stated time period (hours) post challenge 0-1 / Number of LID events in each stated time period (hours) post challenge 1-2 / Number of LID events in each stated time period (hours) post challenge 2-3 / Number of LID events in each stated time period (hours) post challenge 3-4 / Number of LID events in each stated time period (hours) post challenge 4-5 / Number of LID events in each stated time period (hours) post challenge 5-6 / Number of LID events post challenge Total: smilagenin 20 mg/kg/day p.o. 18 weeks, then 10 week washout; for Number of LID events in each stated time period (hours) post challenge 0-1: 0-1 h; for Number of LID events in each stated time period (hours) post challenge 1-2: 1-2 h; for Number of LID events in each stated time period (hours) post challenge 2-3: 2-3 h; for Number of LID events in each stated time period (hours) post challenge 3-4: 3-4 h; for Number of LID events in each stated time period (hours) post challenge 4-5: 4-5 h; for Number of LID events in each stated time period (hours) post challenge 5-6: 5-6 h; for Number of LID events post challenge Total: total 0-6 h
Method: Ten female cynomolgus monkeys (macaques) (Macaca fascicularis, 3.0-4.5 kg, 4-6 years old) were acclimatised to the experimental setting and procedures for 3 months and baseline behaviour was assessed in all animals. The macaques received MPTP (0.2 mg/kg/day, s.c.) until moderate-marked, stable, parkinsonian symptoms developed.
Following stabilisation of parkinsonian disability, the macaques were administered L-DOPA (Madopar, 20 mg/kg b.i.d., p.o.) for 19 weeks before being administered L-DOPA+vehicle (hydroxypropylmethylcellulose, HPMC, 0.5% w/v containing Tween 80, 0.2% v/v, group 1, n=5) or L-DOPA+smilagenin (20 mg/kg/day, p.o., group 2, n=5) for a further 18 weeks. Smilagenin was then washed out for 10 weeks and all the macaques received only L-DOPA twice daily over this 10 week period.
Following the 10 week washout, the macaques were challenged with L-DOPA (6, 12, 20, 30 or 40 mg/kg, p.o.) or vehicle and the level of dyskinesia over the subsequent 6 h period was assessed by a neurologist blinded to treatment using a monkey dyskinesia rating scale. […] Each macaque received a challenge once every 3 days and received every challenge (vehicle and L-DOPA, 6, 12, 20, 30 or 40 mg/kg) in a randomised order over the course of the experiment. On the days between challenges, the macaques received L-DOPA (20 mg/kg, b.i.d., p.o.) as normal.
The MPTP-lesioned and L-DOPA treated macaques used in this experiment provide an accepted model for L-DOPA-induced dyskinesia.

[2] = tested on: MPTP-lesioned macaques; experiment: On-time (time without bradykinesia) in MPTP-lesioned macaques after L-DOPA challenge; type: in vivo, Macaca fascicularis; settings: for Minutes spent in on time (mean ± s.e. mean): 6 h observation; for Minutes spent in on time (mean ± s.e. mean) / Percent on-time normalised to 0 mg/kg L-DOPA (mean ± s.e. mean): smilagenin 20 mg/kg/day p.o. 18 weeks, then 10 week washout
Method: Analysis was performed using a two-way ANOVA with group and L-DOPA dose as factors.

[3] = Total across all L-DOPA challenge doses (0-40 mg/kg)

SMILES: C[C@@H]1CC[C@@]2(OC1)O[C@H]1C[C@H]3[C@@H]4CC[C@@H]5C[C@@H](O)CC[C@]5(C)[C@H]4CC[C@]3(C)[C@H]1[C@@H]2C [Smilagenin, smilagenin]
- % reduction in LID compared to corresponding vehicle group ([1]; Across all doses of L-DOPA): 53%
- Number of LID events in each stated time period (hours) post challenge 0-1 ([1]; L-DOPA challenge 0 mg/kg): 0
- Number of LID events in each stated time period (hours) post challenge 1-2 ([1]; L-DOPA challenge 0 mg/kg): 0
- Number of LID events in each stated time period (hours) post challenge 2-3 ([1]; L-DOPA challenge 0 mg/kg): 0
- Number of LID events in each stated time period (hours) post challenge 3-4 ([1]; L-DOPA challenge 0 mg/kg): 0
- Number of LID events in each stated time period (hours) post challenge 4-5 ([1]; L-DOPA challenge 0 mg/kg): 0
- Number of LID events in each stated time period (hours) post challenge 5-6 ([1]; L-DOPA challenge 0 mg/kg): 0
- % reduction in LID compared to corresponding vehicle group ([1]; L-DOPA challenge 0 mg/kg): 0%
- Number of LID events post challenge Total ([1]; L-DOPA challenge 0 mg/kg): 0
- Number of LID events in each stated time period (hours) post challenge 0-1 ([1]; L-DOPA challenge 6 mg/kg p.o.): 0
- Number of LID events in each stated time period (hours) post challenge 1-2 ([1]; L-DOPA challenge 6 mg/kg p.o.): 0
- Number of LID events in each stated time period (hours) post challenge 2-3 ([1]; L-DOPA challenge 6 mg/kg p.o.): 0
- Number of LID events in each stated time period (hours) post challenge 3-4 ([1]; L-DOPA challenge 6 mg/kg p.o.): 0
- Number of LID events in each stated time period (hours) post challenge 4-5 ([1]; L-DOPA challenge 6 mg/kg p.o.): 0
- Number of LID events in each stated time period (hours) post challenge 5-6 ([1]; L-DOPA challenge 6 mg/kg p.o.): 0
- % reduction in LID compared to corresponding vehicle group ([1]; L-DOPA challenge 6 mg/kg p.o.): 0%
- Number of LID events post challenge Total ([1]; L-DOPA challenge 6 mg/kg p.o.): 0
- Number of LID events in each stated time period (hours) post challenge 0-1 ([1]; L-DOPA challenge 12 mg/kg p.o.): 0
- Number of LID events in each stated time period (hours) post challenge 1-2 ([1]; L-DOPA challenge 12 mg/kg p.o.): 0
- Number of LID events in each stated time period (hours) post challenge 2-3 ([1]; L-DOPA challenge 12 mg/kg p.o.): 0
- Number of LID events in each stated time period (hours) post challenge 3-4 ([1]; L-DOPA challenge 12 mg/kg p.o.): 0
- Number of LID events in each stated time period (hours) post challenge 4-5 ([1]; L-DOPA challenge 12 mg/kg p.o.): 0
- Number of LID events in each stated time period (hours) post challenge 5-6 ([1]; L-DOPA challenge 12 mg/kg p.o.): 0
- % reduction in LID compared to corresponding vehicle group ([1]; L-DOPA challenge 12 mg/kg p.o.): 100%
- Number of LID events post challenge Total ([1]; L-DOPA challenge 12 mg/kg p.o.): 0
- Number of LID events in each stated time period (hours) post challenge 0-1 ([1]; L-DOPA challenge 20 mg/kg p.o.): 8
- Number of LID events in each stated time period (hours) post challenge 1-2 ([1]; L-DOPA challenge 20 mg/kg p.o.): 29
- Number of LID events in each stated time period (hours) post challenge 2-3 ([1]; L-DOPA challenge 20 mg/kg p.o.): 6
- Number of LID events in each stated time period (hours) post challenge 3-4 ([1]; L-DOPA challenge 20 mg/kg p.o.): 0
- Number of LID events in each stated time period (hours) post challenge 4-5 ([1]; L-DOPA challenge 20 mg/kg p.o.): 0
- Number of LID events in each stated time period (hours) post challenge 5-6 ([1]; L-DOPA challenge 20 mg/kg p.o.): 0
- % reduction in LID compared to corresponding vehicle group ([1]; L-DOPA challenge 20 mg/kg p.o.): 52%
- Number of LID events post challenge Total ([1]; L-DOPA challenge 20 mg/kg p.o.): 43
- Number of LID events in each stated time period (hours) post challenge 0-1 ([1]; L-DOPA challenge 30 mg/kg p.o.): 3
- Number of LID events in each stated time period (hours) post challenge 1-2 ([1]; L-DOPA challenge 30 mg/kg p.o.): 29
- Number of LID events in each stated time period (hours) post challenge 2-3 ([1]; L-DOPA challenge 30 mg/kg p.o.): 11
- Number of LID events in each stated time period (hours) post challenge 3-4 ([1]; L-DOPA challenge 30 mg/kg p.o.): 0
- Number of LID events in each stated time period (hours) post challenge 4-5 ([1]; L-DOPA challenge 30 mg/kg p.o.): 0
- Number of LID events in each stated time period (hours) post challenge 5-6 ([1]; L-DOPA challenge 30 mg/kg p.o.): 0
- % reduction in LID compared to corresponding vehicle group ([1]; L-DOPA challenge 30 mg/kg p.o.): 76%
- Number of LID events post challenge Total ([1]; L-DOPA challenge 30 mg/kg p.o.): 43
- Number of LID events in each stated time period (hours) post challenge 0-1 ([1]; L-DOPA challenge 40 mg/kg p.o.): 8
- Number of LID events in each stated time period (hours) post challenge 1-2 ([1]; L-DOPA challenge 40 mg/kg p.o.): 56
- Number of LID events in each stated time period (hours) post challenge 2-3 ([1]; L-DOPA challenge 40 mg/kg p.o.): 48
- Number of LID events in each stated time period (hours) post challenge 3-4 ([1]; L-DOPA challenge 40 mg/kg p.o.): 14
- Number of LID events in each stated time period (hours) post challenge 4-5 ([1]; L-DOPA challenge 40 mg/kg p.o.): 0
- Number of LID events in each stated time period (hours) post challenge 5-6 ([1]; L-DOPA challenge 40 mg/kg p.o.): 0
- % reduction in LID compared to corresponding vehicle group ([1]; L-DOPA challenge 40 mg/kg p.o.): 27%
- Number of LID events post challenge Total ([1]; L-DOPA challenge 40 mg/kg p.o.): 126
- Number of LID events in each stated time period (hours) post challenge 0-1 [1, 3]: 19
- Number of LID events in each stated time period (hours) post challenge 1-2 [1, 3]: 114
- Number of LID events in each stated time period (hours) post challenge 2-3 [1, 3]: 65
- Number of LID events in each stated time period (hours) post challenge 3-4 [1, 3]: 14
- Number of LID events in each stated time period (hours) post challenge 4-5 [1, 3]: 0
- Number of LID events in each stated time period (hours) post challenge 5-6 [1, 3]: 0
- Number of LID events post challenge Total [1, 3]: 212
- Dyskinesia following challenge with L-DOPA ([1]; group 2 (L-DOPA+smilagenin), challenge with L-DOPA 6 or 12 mg/kg, 6 h): no dyskinesia was observed
- Dyskinesia following challenge with L-DOPA, compared to group 1 (vehicle) ([1]; group 2 (L-DOPA+smilagenin), challenge with L-DOPA at 20, 30 or 40 mg/kg): less dyskinesia compared to group 1
- Minutes spent in on time (mean ± s.e. mean) ([2]; L-DOPA dose 0 mg/kg): 114 ± 43 min
- Percent on-time normalised to 0 mg/kg L-DOPA (mean ± s.e. mean) ([2]; L-DOPA dose 0 mg/kg): 100%
- Minutes spent in on time (mean ± s.e. mean) ([2]; L-DOPA dose 6 mg/kg): 134 ± 43 min
- Percent on-time normalised to 0 mg/kg L-DOPA (mean ± s.e. mean) ([2]; L-DOPA dose 6 mg/kg): 118 ± 32%
- Minutes spent in on time (mean ± s.e. mean) ([2]; L-DOPA dose 12 mg/kg): 126 ± 35 min
- Percent on-time normalised to 0 mg/kg L-DOPA (mean ± s.e. mean) ([2]; L-DOPA dose 12 mg/kg): 111 ± 28%
- Minutes spent in on time (mean ± s.e. mean) ([2]; L-DOPA dose 20 mg/kg): 178 ± 29 min
- Percent on-time normalised to 0 mg/kg L-DOPA (mean ± s.e. mean) ([2]; L-DOPA dose 20 mg/kg): 156 ± 16%
- Minutes spent in on time (mean ± s.e. mean) ([2]; L-DOPA dose 30 mg/kg): 224 ± 13 min
- Percent on-time normalised to 0 mg/kg L-DOPA (mean ± s.e. mean) ([2]; L-DOPA dose 30 mg/kg): 196 ± 6%
- Minutes spent in on time (mean ± s.e. mean) ([2]; L-DOPA dose 40 mg/kg): 230 ± 24 min
- Percent on-time normalised to 0 mg/kg L-DOPA (mean ± s.e. mean) ([2]; L-DOPA dose 40 mg/kg): 202 ± 10%
- Total on-time, smilagenin group versus vehicle group ([2]; two-way ANOVA with group and L-DOPA dose as factors, p>0.05): not significantly different
